Data on 2 compounds can be found in patent US20210154190A1, “SHP2 INHIBITOR COMPOSITIONS AND METHODS FOR TREATING CANCER” (Revolution Medicines, Inc., priority 2018, published 2021).

What all share (format): biochemical
The target in one assay is T1, human SHP2-FL E76K (Homo sapiens, UniProt Q06124, E76K).
T1 sequence (Q06124 1-593 E76K): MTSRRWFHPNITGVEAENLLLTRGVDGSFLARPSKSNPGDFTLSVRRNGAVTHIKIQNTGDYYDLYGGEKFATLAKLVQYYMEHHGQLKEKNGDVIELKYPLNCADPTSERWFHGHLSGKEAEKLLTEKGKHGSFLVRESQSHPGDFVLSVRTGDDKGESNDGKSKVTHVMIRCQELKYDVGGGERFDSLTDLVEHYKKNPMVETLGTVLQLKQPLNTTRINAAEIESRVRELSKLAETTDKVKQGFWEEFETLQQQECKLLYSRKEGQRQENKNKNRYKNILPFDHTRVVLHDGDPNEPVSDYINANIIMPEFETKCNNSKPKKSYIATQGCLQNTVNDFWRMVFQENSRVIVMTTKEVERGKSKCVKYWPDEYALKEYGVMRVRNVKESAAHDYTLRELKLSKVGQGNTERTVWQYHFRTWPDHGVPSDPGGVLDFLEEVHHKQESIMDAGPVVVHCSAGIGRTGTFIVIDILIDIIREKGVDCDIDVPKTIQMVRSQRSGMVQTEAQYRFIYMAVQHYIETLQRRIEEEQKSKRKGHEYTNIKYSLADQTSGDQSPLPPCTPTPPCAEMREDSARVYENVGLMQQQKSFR
Put plainly: SHP2 allosteric inhibition assay (DiFMUP), E76K. As to conditions: for IC50: SHP2 E76K. An excerpt:
(§1) Full-length SHP2 is allosterically activated through binding of bis-tyrosyl-phorphorylated peptides to its Src Homology 2 (SH2) domains. The latter activation step leads to the release of the auto-inhibitory interface of SHP2, which in turn renders the SHP2 protein tyrosine phosphatase (PTP) active and available for substrate recognition and reaction catalysis. The catalytic activity of SHP2 was monitored using the surrogate substrate DiFMUP in a prompt fluorescence assay format.
Diluted inhibitor (5 μL) was mixed with activated enzyme (25 μl) and incubated for 30 minutes at room temperature. […] 50 μl stop solution (0.1 mM sodium pervanadate) was added to each well, the plate was shaken briefly to mix, and read in endpoint mode on a SpectraMax M5 plate reader (Molecular Devices) using excitation and emission wavelengths of 340 nm and 450 nm. Data was imported into GraphPad Prism. Plots of fluorescence intensity vs. log Molar [compound] were created and modeled with a 3-parameter sigmoidal concentration response equation in order to estimate IC50.
(§2) Reactions were then allowed to proceed for 30 minutes and stopped by the addition of a phosphatase inhibitor, sodium pervanadate. De-phosphorylation of DiFMUP results in production of a fluorescent product. Product fluorescence was determined and plotted as a function of compound concentration in order to determine the IC50 for each compound on each mutant using a four parameter sigmoidal dose response function in Prism (GraphPad).
(§3) NsCs mimics the role of the cytosolic domain of a protein tyrosine kinase in this model system.

A further assay addresses T2, human SHP2-FL S189A (Homo sapiens, UniProt Q06124, S189A).
T2 sequence (Q06124 1-593 S189A): T1 sequence (Q06124 1-593 E76K) with K76E, S189A
Put plainly: SHP2 allosteric inhibition assay (DiFMUP), S189A. How it is done: as §1
(§4) […] […] 50 μl stop solution (0.1 mM sodium pervanadate) was added to each well, the plate was shaken briefly to mix, and read in endpoint mode on a SpectraMax M5 plate reader (Molecular Devices) using excitation and emission wavelengths of 340 nm and 450 nm. Data was imported into GraphPad Prism. Plots of fluorescence intensity vs. log Molar [compound] were created and modeled with a 3-parameter sigmoidal concentration response equation in order to estimate IC50.
as §2, §3

Another assay concerns the target T3, human SHP2-FL F285S (Homo sapiens, UniProt Q06124, F285S).
T3 sequence (Q06124 1-593 F285S): T1 sequence (Q06124 1-593 E76K) with K76E, F285S
In words: SHP2 allosteric inhibition assay (DiFMUP), F285S. The procedure:
as §1, §4, §2, §3

The structures appear in SMILES notation. Substitutions are numbered along the chain they refer to. Values joined by “and” are separate entries in the source; they are usually repeats but may differ in a detail not shown here. Equal entries are not always repeated. Where two headings read alike, the source gives them in different places.

Take `Nc1nc(N2CCC3(CCC[C@H]3N)CC2)cnc1Sc1ccnc(Cl)c1Cl` [Compound 1]: the IC50 on human SHP2-FL E76K (0.5 μM NsCs peptide (Activated), read-out: IC50) is > 10000 nM and 13100 nM and 10400 nM; at human SHP2-FL E76K (No Peptide Control (Non-Activated), read-out: pIC50 (converted)), 53.7 nM and 58.9 nM and 50.1 nM; against human SHP2-FL S189A (IC50 (nM), SHP2 S189A 0.5 μM NsCs peptide (Activated), human SHP2-FL S189A, 0.5 μM NsCs peptide (activated)), 3.38 nM and 3.76 nM and 2.99 nM and 3.79 nM; at human SHP2-FL S189A (human SHP2-FL S189A alone, no peptide (non-activated), read-out: IC50 (nM), SHP2 S189A No Peptide Control (Non-Activated)) it was 3.01 nM and 3.35 nM and 2.75 nM and 3.11 nM; at human SHP2-FL S189A (human SHP2-FL S189A alone, no peptide (non-activated), read-out: pIC50, SHP2 S189A No Peptide Control (Non-Activated) (converted)), 3.02 nM and 3.31 nM and 2.75 nM and 3.09 nM; on human SHP2-FL S189A (pIC50, SHP2 S189A 0.5 μM NsCs peptide (Activated), human SHP2-FL S189A, 0.5 μM NsCs peptide (activated)), 3.39 nM and 3.72 nM and 3.02 nM and 3.8 nM. In addition, the IC50 against human SHP2-FL F285S (IC50 (nM), SHP2 F285S 0.5 μM NsCs peptide (Activated), human SHP2-FL F285S, 0.5 μM NsCs peptide (activated)) was 3.76 nM and 9.08 nM and 8.38 nM and 15.1 nM; on human SHP2-FL F285S (human SHP2-FL F285S alone, no peptide (non-activated), read-out: IC50 (nM), SHP2 F285S No Peptide Control (Non-Activated)), 1.57 nM and 1.55 nM and 1.04 nM and 1.19 nM; at human SHP2-FL F285S (human SHP2-FL F285S alone, no peptide (non-activated), read-out: pIC50, SHP2 F285S No Peptide Control (Non-Activated) (converted)) it was 1.55 nM and 1.05 nM and 1.2 nM; against human SHP2-FL F285S (pIC50, SHP2 F285S 0.5 μM NsCs peptide (Activated), human SHP2-FL F285S, 0.5 μM NsCs peptide (activated)), 3.72 nM and 9.12 nM and 8.32 nM and 15.1 nM.

As for `Cc1nc(N2CCC3(CC2)CO[C@@H](C)[C@H]3N)c(CO)nc1-c1cccc(Cl)c1Cl` [Compound B], the results for the Biochemical sensitivity result at human SHP2-FL E76K (Variant E76K), at human SHP2-FL S189A (Variant S189A) and on human SHP2-FL F285S (Variant F285S) were “no (Sensitive if IC50 < 2000 nM)”, “yes (Sensitive if IC50 < 2000 nM)” and “yes (Sensitive if IC50 < 2000 nM)”, respectively.
